Results published in patent US20080045796A1, “HISTOFLUORESCENT STAIN COMPOSITION FOR ENDOSCOPY” (PENTAX CORPORATION, priority 2006, published 2008).

Experiments:
Duodenum = experiment: Tail vein administration, stainability for different regions: duodenum; format: in vivo, mouse
Procedure: (§1) An evaluation of the tissue stain composition of the present invention was performed for the stainability for different regions. Duodenum, large intestine and liver were extracted and observed.
(§2) Fast Green FCF was prepared to 10 mg/mL using physiological saline at pH 6.0. 100 μL of the prepared Fast Green FCF was administered to a mouse (ddY, 11 weeks old, male) through the tail vein, and the mouse was subjected to laparotomy after 5 minutes. The penetrability was observed by naked eyes, and the stainability and fluorescence were observed using a confocal microscope (Leica Microsystems Corp., TCP-SP2).
The conditions for the confocal microscopic observation were such that the diameter of the confocal pinhole was 1.00 airy, and an oil immersion lens of 63 magnifications was used.

[1] = tested on: large intestine of a mouse; experiment: Stainability: stain solution injected into large intestine, confocal cross-section of the lumen; settings: 1.0 mg/mL, pH 6, 100 μL injected; images at every 5.0 μm from the luminal surface
Procedure: Fast Green FCF was prepared to 1.0 mg/mL using a 0.1 M sodium phosphate buffer solution (pH 6), and 100 μL of the stain solution was injected into the large intestine of a mouse (ddY, 11 weeks old, male). To stain the large intestine evenly while preventing outflow of the stain, the mouse was subjected to laparotomy, and the stain was injected while clipping the upward colon side and the downward colon side of the extracted large intestine with hemostatic clips.
The imaging conditions were such that the diameter of the confocal pinhole was 1.00 airy, and a lens of 20 magnifications was used.

liver = experiment: Tail vein administration, stainability for different regions: liver; format: in vivo, mouse
Procedure: as §1, §2
(§3) Furthermore, the surrounding septum was more strongly stained. The conditions for the confocal microscopic observation were such that the diameter of the confocal pinhole was 1.00 airy, and a cross-sectional image of an area 10 μm deep from the luminal surface, which image was taken using an oil immersion lens of 63 magnifications, is presented in FIG. 12.

[2] = Measurement of absorption spectrum and fluorescence excitation spectrum; format: physicochemical
Procedure: Measurement of an absorption spectrum and a fluorescence excitation spectrum of Fast Green FCF was performed. The Fast Green FCF (Wako Pure Chemical Industries, Ltd.) was adjusted to 1.0 mg/ml, and the light absorbance was continuously measured at a wavelength of from 200 to 750 nm using a spectrophotometer (manufactured by Shimadzu Corp., BioSpec-1600) to determine the wavelength at which the absorbance reached the maximum. The maximum absorption wavelength of 628 nm thus obtained was irradiated as an excitation wavelength, and the wavelength of the scattered light detected in the perpendicular direction to the light axis of the excitation light was measured using a fluorescence spectrophotometer (manufactured by Shimadzu Corp., RF-1500), thus to obtain a maximum excitation wavelength of 628 nm and a maximum fluorescence wavelength of 652 nm.

[3] = tested on: large intestine extracted from a mouse; experiment: Stainability and tissue penetrability, fluorescence observation of frozen sections; settings: 6 μm frozen sections, stained as in Example 3
Excerpt: The stainability and tissue penetrability of Fast Green FCF (Fast Green GCF, Wako Pure Chemical Industries, Ltd.) were checked by observation of a tissue specimen.
A tissue specimen of the large intestine extracted from a mouse, which had been stained in the same manner as in Example 3, was embedded in an OCT Compound (Sakura Finetek Corp., Tissue-Tek O.C.T. compound), and was frozen by rapidly cooling with dry ice. The frozen section was sliced into 6 μm to prepare frozen sections, and fluorescence observation was performed. The fluorescence observation was performed using a confocal microscope (Leica Microsystems Corp., TCP-SP2) (imaging conditions: using a lens of 40 magnifications, pinhole diameter 171.3 μm).
A tissue section which was similarly embedded in the OCT compound was HE-stained, and the observation result is shown in FIG. 9 as a Comparative Example.

mouse large intestine = experiment: Confocal microscope observation of extracted large intestine piece stained with the stain (stain specificity)
Procedure: In order to find the stain specificity of the stain, Fast Green FCF (Wako Pure Chemical Industries, Ltd.) was diluted to a 2.0 mg/mL preparation using a 0.1 M sodium phosphate buffer solution (pH 7), and observation was performed using a confocal microscope (Leica Microsystems Corp., TCS-SP2).
For the sample, a mouse was subjected to laparotomy to extract the large intestine, which was then cut into a piece of 1 cm at every edge and stained with the stain.
The diameter of the confocal pinhole was 1.00 airy, and an oil immersion lens of 63 magnifications was used.
Staining was performed by immersion in the same manner as in Example 2, excitation was induced at a wavelength of 488 nm, and the fluorescent images were observed.
The conditions for the confocal microscope were the same, except for the wavelength of the irradiated laser.

large intestine = experiment: Tail vein administration, stainability for different regions: large intestine; format: in vivo, mouse; settings: 10 mg/mL, 100 μL tail vein, laparotomy after 5 minutes
Procedure: as §1, §2
as §3, with “The” for “Furthermore, the surrounding septum was more strongly stained. The”, “area about” for “area”, “11.” for “12.”

[4] = tested on: tumor tissue developed in the upper part of the ovary of a rat; experiment: Extracted tumor tissue immersed in stain, confocal microscope observation (single and double staining)
Procedure: Fast Green FCF was prepared to 1.0 mg/mL using a 0.1 M sodium phosphate buffer solution (pH 7).
The tumor tissue of the rat was extracted and immersed in the prepared stain for 5 minutes to stain the tissue. The remaining unpenetrated portion of the Fast Green was washed off with a 0.1 M sodium phosphate buffer solution (pH 6), and observation was made using a confocal microscope.
The observation conditions were such that the pinhole diameter was 1.00 airy, and an oil immersion lens of 63 magnifications was used.
To verify the stainability at a tumor part, Monascus Yellow was used together with Fast Green FCF to perform double staining. The Monascus Yellow was prepared to 1.0 mg/mL using a 0.1 M sodium phosphate buffer solution (pH 6).

[5] = 10 mg/mL, 100 μL tail vein, laparotomy after 5 minutes

can be excited at, for example [2]: 628 nm
fluorescence detected at [2]: 652 nm
maximum absorption wavelength ([2]; 1.0 mg/ml, spectrophotometer 200 to 750 nm): 628 nm
maximum excitation wavelength ([2]; fluorescence spectrophotometer): 628 nm
maximum fluorescence wavelength ([2]; fluorescence spectrophotometer): 652 nm
SMILES: CCN(Cc1cccc(S(=O)(=O)[O-])c1)c1ccc(C(=C2C=CC(=[N+](CC)Cc3cccc(S(=O)(=O)[O-])c3)C=C2)c2ccc(O)cc2S(=O)(=O)[O-])cc1.[Na+].[Na+] [Fast Green FCF]
staining site under confocal microscope (Duodenum; [5]): Strong staining was achieved not in the cytoplasm but in the cellular membrane or intercellular space
staining visible by naked eyes (Duodenum; [5]): stained in deep-green color to an extent of being clearly visible by naked eyes
fluorescent contrast under a confocal microscope (Duodenum; epithelial cells): provides clear fluorescent contrast for the shape of the epithelial cells
contrast under a white light source (Duodenum; small intestinal villi): conferred contrast such that observation of the small intestinal villi under a white light source became feasible
fluorescent contrast in confocal cross-sectional images [1]: provides good fluorescent contrast for the lamina propria mucosae
staining site under confocal microscope (liver; [5]): not only the intercellular space and cellular membrane as observed in the duodenum or large intestine but also the lobular parts were stained
fluorescent contrast under confocal microscope (liver; connective tissue in the liver): provided good contrast for the Glisson's capsule
fluorescent contrast in frozen section, compared with HE staining [3]: provided good fluorescent contrast for the lamina propria mucosae
fluorescent contrast in confocal image (mouse large intestine; 2.0 mg/mL, pH 7, He-Ne laser 633 nm, fluorescence 650 to 750 nm): provided fluorescent contrast to the images of the intercellular space of the mucosal epithelium of the large intestine
chromophilic regions, Fast Green FCF versus Fluorescite (mouse large intestine; Fluorescite excited at 488 nm, single and double-stained images): the stain and Fluorescite had different chromophilic regions
color change visible by naked eyes (large intestine): did not show color changes that were clear enough to be visible by naked eyes
penetration of the dye (large intestine): the dye penetrated sufficiently to the extent that imaging by a confocal imaging system was possible
staining site under confocal microscope (large intestine): The intercellular space near the luminal surface, and the lamina propria mucosae were well stained
fluorescent contrast in confocal images ([4]; 1.0 mg/mL, pH 7, immersed 5 minutes): provided good fluorescent contrast for the connective tissue fibers in the tumor tissue
staining site in double staining ([4]; Monascus Yellow 1.0 mg/mL pH 6 together with Fast Green FCF): slightly stained the cells but more strongly stained the fibrous part
